Data on one substance can be found in patent US11541027B2 (DelMar Pharmaceuticals, Inc., priority 2014, dated 2023).

Holding throughout (format): cell-based, human
Test [1] deals with SkLU1. Nature of the test: Cytotoxicity in NSCLC tumor models. The following applies: SkLU1, p53 mu; N = 3. From the text: (§1) The cell lines include cell lines with wild-type p53, cell lines with mutant p53, and cell lines in which p53 has been knocked out (“null”). The properties of these cell lines are described in F. Bunz et al., “Requirement for p53 and p21 to Sustain G2 Arrest After DNA Damage,” Science 282: 1497-1501 (1998), incorporated herein by this reference.

Test [2] relates to H460. Nature of the test: Cytotoxicity in NSCLC tumor models. The settings on record: H460, p53 wt; N = 3; listed as DAG.
Excerpt: as §1

Test [3] relates to H2122. Nature of the test: Cytotoxicity in NSCLC tumor models. The settings on record: H2122, p53 mu; N = 3.
Excerpt: as §1

In test [4] the test system is H157. As to the kind of experiment: Cytotoxicity in NSCLC tumor models. The following applies: H157, p53 mu; N = 3.
Excerpt: as §1

For test [5], the system named is H838. Nature of the test: Cytotoxicity in NSCLC tumor models. The following applies: H838, p53 wt; N = 3.
Excerpt: as §1

The subject of test [6] is H1975. Nature of the test: Cytotoxicity in NSCLC tumor models. The following applies: H1975, p53 mu; N = 3.
Excerpt: as §1

The subject of test [7] is H226. Nature of the test: Cytotoxicity in NSCLC tumor models. The following applies: H226, p53 wt; N = 3.
Excerpt: as §1

The subject of test [8] is A549. Nature of the test: Cytotoxicity in NSCLC tumor models. The following applies: A549, p53 wt; N = 3.
Excerpt: as §1

Test [9] has as its system H1299. As to the kind of experiment: Cytotoxicity in NSCLC tumor models. The settings on record: H1299, p53 null; N = 3.
Excerpt: as §1

For test [10], the system named is Ovcar-10. As to the kind of experiment: 5-day MTT cytotoxicity, wild-type p53 ovarian tumor panel. The settings on record: Ovcar-10, wt-p53, cisplatin-resistant, N = 3, read-out: DAG IC50 (μM) Mean. From the text:
(§2) The ovarian tumor panel lines are as follows: • is A2780; ▪ is 2780-CP16; ▴ is OVCAR-10; ▾ is HEY; and ♦ is OVCA-433. Dose-response curves were undertaken using a 5-day MTT assay to determine cell viability. The A2780 represents a cisplatin-sensitive model, whereas the other four cell lines are cisplatin-resistant. The cell line 2780-CP16 was derived for cisplatin resistance from A2780. The properties of some of these cell lines are disclosed in G. S. Hagopian et al., “Expression of p53 in Cisplatin-Resistant Ovarian Cell Lines: Modulation with the Novel Platinum Analog (1R,2R-Diaminocyclohexane)(trans-diacetato)(dichloro)-platinum(IV),” Clin. Cancer Res. 5: 655-663 (1999), and in Z. H. Siddik et al., “Independent Pathways of p53 Induction by Cisplatin and X-Rays in a Cisplatin-Resistant Cell Line,” Cancer Res. 58: 698-703 (1998), both incorporated herein by this reference.
(§3) The data of FIG. 7 are shown in Table 8 in terms of the IC50 of dianhdrogalactitol in the wild-type p53 human ovarian tumor panel.

In test [11] the test system is A2780. The test is described as above. The settings on record: A2780, wt-p53, cisplatin-sensitive, N = 3, read-out: DAG IC50 (μM) Mean.
Excerpt: as §2, §3

Test [12] relates to OVCA-433. The test is described as above. The settings on record: OVCA-433, wt-p53, cisplatin-resistant, N = 3, read-out: DAG IC50 (μM) Mean.
Excerpt: as §2, §3

The subject of test [13] is Hey. The test is described as above. The following applies: wt-p53, cisplatin-resistant, N = 3, read-out: DAG IC50 (μM) Mean.
Excerpt: as §2, §3

Test [14] has as its system 2780-CP. The description is as above. The settings on record: wt-p53, cisplatin-resistant, N = 3, read-out: DAG IC50 (μM) Mean.
Excerpt: as §2, §3

By IC50 is commonly meant the concentration needed to halve the response being measured. In the case of dianhydrogalactitol, the IC50 in test [1] was 2.72 µM; in test [2], 0.49 µM; in test [3], 2.84 µM; in test [4] it was 4.48 µM; in [5], 4.52 µM; in test [6] it was 0.9 µM. Moreover, the IC50 in test [7] came to 6.11 µM; in test [8] it was 1.75 µM; in test [9] it was 2.37 µM; in test [10], 3.6 µM; in test [11], 0.54 µM; in test [12], 2.3 µM. Further, the IC50 in test [13] amounted to 2.1 µM; in test [14], 2.2 µM.
